Reference: patent US20240277713A1 (Kadmon Corporation, LLC, priority 2022, published 2024)

Tests used:
[1] = Toxicokinetic evaluation in pregnant rats (Example 3); type: in vivo, rat; details: for Cmax / AUC(0-t): female, Sprague-Dawley, rat, plasma, po; for AUC(0-t): read-out: Mean AUC0-24 in plasma of pregnant rats
Source text: Animals received in-life and postmorten evaluations.

CYP1A2 = target: T1, CYP1A2 (Homo sapiens, UniProt P05177); experiment: Enzyme systems in vitro: CYP1A2; type: in vitro ADME
T1 sequence (P05177 1-516): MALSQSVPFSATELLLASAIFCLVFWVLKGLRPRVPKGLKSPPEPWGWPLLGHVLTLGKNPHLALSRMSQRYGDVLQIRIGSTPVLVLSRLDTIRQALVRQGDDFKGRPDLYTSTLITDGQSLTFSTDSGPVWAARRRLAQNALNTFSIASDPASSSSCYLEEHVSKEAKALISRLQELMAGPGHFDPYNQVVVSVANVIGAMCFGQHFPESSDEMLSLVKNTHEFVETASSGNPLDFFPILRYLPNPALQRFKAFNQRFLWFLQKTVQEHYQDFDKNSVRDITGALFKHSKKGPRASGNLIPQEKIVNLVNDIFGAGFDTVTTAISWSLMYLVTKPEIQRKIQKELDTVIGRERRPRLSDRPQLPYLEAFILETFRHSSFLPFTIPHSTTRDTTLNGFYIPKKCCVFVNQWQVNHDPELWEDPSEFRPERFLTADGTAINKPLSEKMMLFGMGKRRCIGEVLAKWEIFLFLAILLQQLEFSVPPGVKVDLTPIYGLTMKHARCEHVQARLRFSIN

[2] = system: New Zealand White rabbits; experiment: Pilot prenatal developmental toxicity study in New Zealand White rabbits with non-pregnant dose range finding phase (Example 2)
Experimental: The study was conducted in two phases: Phase A was a dose range finding tolerance study with non-pregnant rabbits, and Phase B was the pilot developmental toxicity study.
All fetuses were given the appropriate external examination.

[3] = Toxicokinetics in pregnant Sprague-Dawley rats (Example 1); type: in vivo, rat; details: female, Sprague-Dawley, rat, in vivo, po, 25 mg base/kg/day
CYP2D6 = CYP2D6 (Homo sapiens, UniProt P10635); experiment: Enzyme systems in vitro: CYP2D6; type: in vitro ADME
[4] = system: human peripheral blood lymphocytes (HPBL); experiment: in vitro chromosome aberration assay; type: cell-based
OATP1B1 = target: T2, OATP1B1 (Homo sapiens, UniProt Q9Y6L6); experiment: Transporter systems in vitro: OATP1B1; type: in vitro ADME; details: clinically relevant concentrations
T2 sequence (Q9Y6L6 1-691): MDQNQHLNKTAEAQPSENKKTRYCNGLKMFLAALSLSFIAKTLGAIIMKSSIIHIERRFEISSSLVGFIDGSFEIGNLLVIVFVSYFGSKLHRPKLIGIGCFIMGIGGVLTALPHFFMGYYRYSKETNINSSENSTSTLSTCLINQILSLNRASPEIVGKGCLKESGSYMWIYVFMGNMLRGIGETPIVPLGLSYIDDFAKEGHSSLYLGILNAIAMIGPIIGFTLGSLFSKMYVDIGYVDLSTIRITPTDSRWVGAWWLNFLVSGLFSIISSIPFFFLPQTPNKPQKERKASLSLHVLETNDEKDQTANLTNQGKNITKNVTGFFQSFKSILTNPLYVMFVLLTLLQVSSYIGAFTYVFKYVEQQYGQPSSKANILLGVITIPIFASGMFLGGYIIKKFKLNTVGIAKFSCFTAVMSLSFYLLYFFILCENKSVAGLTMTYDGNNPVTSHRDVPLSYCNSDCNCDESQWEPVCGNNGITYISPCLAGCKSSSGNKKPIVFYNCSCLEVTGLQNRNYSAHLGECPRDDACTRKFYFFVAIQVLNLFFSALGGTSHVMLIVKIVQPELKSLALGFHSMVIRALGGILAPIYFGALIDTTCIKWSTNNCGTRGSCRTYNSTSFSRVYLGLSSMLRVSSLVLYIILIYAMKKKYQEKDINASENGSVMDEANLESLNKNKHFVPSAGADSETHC

[5] = Pharmacokinetics in chronic GVHD patients; type: in vivo, human
[6] = 15 mg/kg/day, GD 6, belumosudil 15 mg base/kg oral
[7] = 15 mg/kg/day, GD 17, belumosudil 15 mg base/kg oral
[8] = 50 mg/kg/day, GD 6, belumosudil 50 mg base/kg oral
[9] = 50 mg/kg/day, GD 17, belumosudil 50 mg base/kg oral
[10] = 150 mg/kg/day, GD 6, belumosudil 150 mg base/kg oral
[11] = 150 mg/kg/day, GD 17, belumosudil 150 mg base/kg oral

CYP2D6, sequence (P10635 whole entry): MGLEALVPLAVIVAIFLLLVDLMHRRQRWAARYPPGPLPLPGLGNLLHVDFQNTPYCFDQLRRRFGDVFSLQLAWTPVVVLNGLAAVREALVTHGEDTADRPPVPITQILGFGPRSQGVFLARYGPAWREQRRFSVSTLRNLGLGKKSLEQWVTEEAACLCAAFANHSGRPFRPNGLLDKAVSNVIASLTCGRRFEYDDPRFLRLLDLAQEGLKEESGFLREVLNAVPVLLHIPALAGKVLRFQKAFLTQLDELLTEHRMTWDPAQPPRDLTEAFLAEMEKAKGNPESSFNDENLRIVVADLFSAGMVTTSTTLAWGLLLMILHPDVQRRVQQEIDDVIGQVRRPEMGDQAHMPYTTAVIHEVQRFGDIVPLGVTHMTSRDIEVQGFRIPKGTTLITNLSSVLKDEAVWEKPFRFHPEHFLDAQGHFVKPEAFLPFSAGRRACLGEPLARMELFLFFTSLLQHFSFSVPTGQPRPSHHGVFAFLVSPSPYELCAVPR

With CC(C)NC(=O)COc1cccc(-c2nc(Nc3ccc4[nH]ncc4c3)c3ccccc3n2)c1 [belumosudil, 2-{3-[4-(1H-indazol-5-ylamino)-2-quinazolinyl]phenoxy}-N-(propan-2-yl) acetamide] the Cmax [1, 6] was 1530 ng/mL, the AUC(0-t) [1, 6] was 9750 ng·h/mL and the Cmax [1, 7] was 1320 ng/mL. It also gave an AUC(0-t) [1, 7] of 11900 ng·h/mL, a Cmax [1, 8] of 3000 ng/mL and an AUC(0-t) [1, 8] of 37700 ng·h/mL. The Cmax [1, 9] was 4360 ng/mL, the AUC(0-t) [1, 9] was 33300 ng·h/mL and the Cmax [1, 10] was 5150 ng/mL. The AUC(0-t) [1, 10] was 89400 ng·h/mL, the Cmax [1, 11] was 7800 ng/mL and the AUC(0-t) [1, 11] was 88300 ng·h/mL. For the same compound, the “accumulation after multiple dosing of belumosudil” value ([1]; pregnant rats) was “No apparent accumulation”, the CYP1A2 inhibition (CYP1A2) was “inhibitor” and the maternal toxicity ([2]; 25 or 50 mg base/kg/day, GD 6-18) was “no toxicologically relevant maternal toxicity was observed”. The maternal response ([2]; 100 and 250 mg base/kg/day, dose-dependent) was “reduced body weight gain/loss, decreased food consumption, clinical signs”, the treatment-related effects ([2]; Phase A, 300 and 400 mg base/kg/day) was “slight body weight losses and decreased food consumption” and the “embryo or fetal toxicity” value ([2]; Phase B, any dose level (25-250 mg base/kg/day)) was “no treatment-related embryo or fetal toxicity was apparent”. The “NOAEL for developmental toxicity” value ([2]; pregnant rabbits) was 250 mg base/kg/day, the “NOAEL for maternal toxicity” value ([2]; pregnant rabbits) was 50 mg base/kg/day and the survival ([2]; rabbit, in vivo) was “not affected”. For the same compound, the AUC(0-t) ([3]; read-out: maternal AUC0-24) was 20400 ng·h/mL, the Cmax ([3]; read-out: maternal Cmax) was 1800 ng/mL and the CYP2D6 inhibition (CYP2D6) was “inhibitor”. For the same compound, the “genotoxicity, chromosome aberration assay” value [4] was “not genotoxic”, the OATP1B1 inhibition (OATP1B1) was “inhibits” and the “mean (% CV) steady-state AUC” value ([5]; 200 mg once daily) was 22700 (48%) h·ng/mL. For the same compound, the “mean (% CV) steady-state Cmax” value ([5]; 200 mg once daily) was 2390 (44%) ng/mL, the “pharmacokinetics with regard to age, sex, weight, or mild to moderate renal impairment” value ([5]; age 18 to 77 years, weight 38.6 to 143 kg) was “No clinically significant differences” and the Tmax ([5]; human, in vivo, oral, 200 mg once daily or twice daily, read-out: Median Tmax at steady state) was 1.26 to 2.53 h. It also gave a mean elimination half-life ([5]; patients, % CV 39%) of 19 h and a clearance ([5]; patients, % CV 46%) of 9.83 L/h.
